Columns and labels:
Format in all cases: in vivo
[1] = test system: Atlantic salmon (Salmo salar); test: Example 1 feeding study: growth and feed conversion of fish on feed with carvacrol or Salvia officinalis extract; conditions: for Final weight / Feed conversion ratio / Specific growth rate: 67 days, triplicate, Salvia = Salvia officinalis extract; for Final weight: initial weight about 170 g, sea water 11.8° C.
Method: (§1) Growth rate is expressed as percentage increase in body mass from day to day (Specific Growth Rate, SGR). This is calculated as:
(§2) [formula] FinalW=final weight InitW=initial weight Days=time from measuring initial weight to final weight
(§3) The common term to describe this is Feed Conversion Ratio (FCR) defined as: FCR=Amount of feed fed (kg)/Net growth of the fish (kg)
A control feed was prepared from fish meal (407.4 g), soybean meal (55.8 g), corn gluten (196.1 g), wheat (88.0 g), fish oil (247.3 g), mineral and vitamin premixes (3.8 g), yttrium premix (1.0 g, used to measure lipid digestibility as discussed below) and astaxanthin preparation (0.6 g). Pellets were extruded using the process explained above and coated with the fish oil.
Test feeds containing 0.1 wt % and 0.2 wt % carvacrol formulation (containing 50 wt % carvacrol and 50 wt % silica carrier) were prepared. The amount of active substance was 500 and 1000 mg per kg feed, respectively. In the comparison feeds, the amount of wheat was reduced to 87.0 g and 86.0 g respectively. The carvacrol formulation was added with the other microingredients to the mixer before preconditioning.
Test feeds containing 0.1 wt % and 0.2 wt % formulation of Salvia officinalis salvia extract (containing 50 wt % salvia extract and 50 wt % silica carrier) were prepared in a similar way.
The feed was fed to Atlantic salmon (Salmo salar) weighing 169 g (±3 g) at the onset of the study. The fish was stocked in tanks (1 m×1 m). There were 30 fish in each tank. Sea water temperature was 11.8° C. (±0.5° C.). The fish were fed for 67 days. The study was run in triplicate.

[2] = test system: Atlantic salmon (Salmo salar); test: Example 3 apparent digestibility of protein, C16:0, saturated fatty acids and total lipid; conditions: for ADC protein (%) / ADC C16:0 (%) / ADC saturated fatty acids (%) / ADC total lipid (%): added as 100% oil, 96 days, one tank, Salvia lavandulifolia; for ADC protein (%): 8.9° C.
Method: (§4) To achieve the above objects, additives that can increase the digestibility of fat and or protein are of value. This can be measured by the “Apparent Digestibility Coefficient”, calculated as: […]
(§5) Yttrium is added to the diet for the purpose of calculating ADC, but is otherwise not a necessary component of fish feed.
Control feed was prepared from South-American fish meal (526.2 g), soybean meal (40.0 g), corn gluten (79.0 g), wheat (120.4 g), South-American fish oil (230.3 g), mineral and vitamin premixes (2.5 g), yttrium premix (1.0 g), and astaxanthin preparation (0.6 g). Pellets were extruded using the process explained above and coated with the fish oil.
Test feeds were prepared containing carvacrol and/or salvia extract (Salvia lavandulifolia). Carvacrol and/or salvia extract were each added as 100% oil. Two different inclusion levels of separate carvacrol and salvia extract (0.5 g/kg and 1.0 g/kg) were tested.
Two test feeds were prepared with a combination of carvacrol and salvia extract. The inclusion levels were 1.0 g carvacrol and 0.2 g/kg salvia extract, and 0.5 g/kg carvacrol and 0.5 g/kg salvia extract, respectively. The carvacrol oil and/or salvia extract was mixed with the fish oil and coated onto the surface of the pellets by vacuum coating after drying of the pellets.
Pellet size was 3 mm for all feeds.
The feed was fed to Atlantic salmon (Salmo salar) weighing 156 g (±13 g) at the onset of the study. The fish was stocked in tanks holding 100 L water. There were 25 fish in each tank. Sea water temperature was 8.9° C.±0.2° C. The fish were fed for 96 days. The study was run with four control groups and one tank each for the different inclusion levels of carvacrol, salvia extract or combined carvacrol and salvia.
Apparent digestibility was determined for protein, the saturated fatty acid C16:0, the sum of all saturated fatty acids and the total lipid.

[3] = test system: Atlantic salmon (Salmo salar); test: Example 2 feeding study: growth and feed conversion of fish on feed with carvacrol or Salvia lavandulifolia extract; conditions: for Feed conversion ratio / Specific growth rate / Final weight: 82 days, Salvia = Salvia lavandulifolia extract; for Final weight: initial weight about 199 g, sea water 12° C., triplicate
Method: as §1, §2, §3
(§6) Control and comparison feeds were prepared as in Example 1. Salvia lavandulifolia salvia extract (CAS 8016-65-7) was used.
(§7) The feed was fed to Atlantic salmon (Salmo salar) weighing 199 g (±2.4 g) at the onset of the study. The fish were stocked in tanks (1 m×1 m). There were 35 fish in each tank. Sea water temperature was 12° C. The fish were fed for 82 days. The study was run in triplicate.

[4] = test system: Atlantic salmon (Salmo salar); test: Example 2 lipid digestibility (Apparent Digestibility Coefficient, yttrium marker); conditions: for ADC (%) lipid: Example 2, Salvia = Salvia lavandulifolia extract
Method: as §4, §5, §6, §7

[5] = with increasing amounts in feed, Example 1, in words
[6] = with increasing amounts in feed, Example 3, in words
[7] = with increasing amounts in feed, Example 2, in words

Cc1ccc(C(C)C)cc1O [Carvacrol, 2-methyl-5(1-methylethyl)-phenol]
Final weight ([1]; 0.05 wt % additive in feed): 339 ± 18 g
Feed conversion ratio ([1]; 0.05 wt % additive in feed): 0.91 ± 0.05
Specific growth rate ([1]; 0.05 wt % additive in feed): 1.04 ± 0.05
Final weight ([1]; 0.1 wt % additive in feed): 354 ± 6 g
Feed conversion ratio ([1]; 0.1 wt % additive in feed): 0.87 ± 0.03
Specific growth rate ([1]; 0.1 wt % additive in feed): 1.09 ± 0.03
feed utilisation [1, 5]: improved
fish growth [1, 5]: increased
ADC protein (%) ([2]; 0.05 wt % additive in feed): 88.8%
ADC C16:0 (%) ([2]; 0.05 wt % additive in feed): 75.3%
ADC saturated fatty acids (%) ([2]; 0.05 wt % additive in feed): 75.5%
ADC total lipid (%) ([2]; 0.05 wt % additive in feed): 89.2%
ADC protein (%) ([2]; 0.10 wt % additive in feed): 87.6%
ADC C16:0 (%) ([2]; 0.10 wt % additive in feed): 74.0%
ADC saturated fatty acids (%) ([2]; 0.10 wt % additive in feed): 74.4%
ADC total lipid (%) ([2]; 0.10 wt % additive in feed): 89.2%
lipid digestibility [2, 6]: increased
protein digestibility [2, 6]: increased
Feed conversion ratio ([3]; 0.05 wt % additive in feed): 0.68
Specific growth rate ([3]; 0.05 wt % additive in feed): 1.16
Final weight ([3]; 0.05 wt % additive in feed): 512 g
Feed conversion ratio ([3]; 0.1 wt % additive in feed): 0.70
Specific growth rate ([3]; 0.1 wt % additive in feed): 1.13
Final weight ([3]; 0.1 wt % additive in feed): 503 g
feed utilisation [3, 7]: improved
fish growth [3, 7]: increased
ADC (%) lipid ([4]; 0.05 wt % additive in feed): 95.78%
ADC (%) lipid ([4]; 0.1 wt % additive in feed): 97.65%
lipid digestibility [4, 7]: increased
